According to ChEMBL document CHEMBL6078611, “A potent GPX4 degrader to induce ferroptosis in HT1080 cells” (Eur J Med Chem, 2024):
The source made the active and inactive calls. The rule behind the calls is not given here.

Legend:
[1] = target: T1, Baculoviral IAP repeat-containing protein 2/Phospholipid hydroperoxide glutathione peroxidase GPX4 (Homo sapiens, UniProt Q13490+P36969); assay: Protac activity at cIAP/GPX4 in human HT-1080 cells assessed as degradation of GPX4 incubated for 48 hrs by Western blot analysis; assay type: cell-based
Target sequence in this assay (Q13490 whole entry): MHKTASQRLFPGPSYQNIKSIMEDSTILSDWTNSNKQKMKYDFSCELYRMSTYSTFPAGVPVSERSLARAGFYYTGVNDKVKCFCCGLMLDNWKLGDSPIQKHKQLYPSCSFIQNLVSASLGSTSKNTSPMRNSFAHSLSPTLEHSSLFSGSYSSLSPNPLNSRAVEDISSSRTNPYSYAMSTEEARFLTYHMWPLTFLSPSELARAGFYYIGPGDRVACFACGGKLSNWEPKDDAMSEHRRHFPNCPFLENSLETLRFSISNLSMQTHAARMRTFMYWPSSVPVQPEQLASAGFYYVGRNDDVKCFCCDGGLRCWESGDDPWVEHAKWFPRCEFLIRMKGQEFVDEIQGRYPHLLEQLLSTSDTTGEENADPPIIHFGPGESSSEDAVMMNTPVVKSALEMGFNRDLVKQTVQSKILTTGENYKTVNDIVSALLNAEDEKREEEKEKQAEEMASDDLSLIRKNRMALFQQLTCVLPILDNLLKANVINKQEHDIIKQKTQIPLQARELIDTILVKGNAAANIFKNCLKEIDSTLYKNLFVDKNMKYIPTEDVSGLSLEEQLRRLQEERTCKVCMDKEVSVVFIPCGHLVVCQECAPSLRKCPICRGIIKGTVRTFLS
Target sequence in this assay (P36969 whole entry): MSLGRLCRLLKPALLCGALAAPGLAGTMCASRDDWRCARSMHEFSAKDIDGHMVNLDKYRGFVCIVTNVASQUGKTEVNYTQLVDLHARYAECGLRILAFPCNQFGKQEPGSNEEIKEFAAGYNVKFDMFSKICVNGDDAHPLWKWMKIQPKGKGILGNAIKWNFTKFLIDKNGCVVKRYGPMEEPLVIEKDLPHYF

[2] = target: T1, Baculoviral IAP repeat-containing protein 2/Phospholipid hydroperoxide glutathione peroxidase GPX4; assay: Protac activity at cIAP/GPX4 in human HT-1080 cells assessed as degradation of GPX4 at 10 uM incubated for 48 hrs by Western blot analysis relative to control; assay type: cell-based
Target sequence in this assay (P36969 whole entry, looked up): as the sequence (P36969 whole entry) above
Target sequence in this assay (Q13490 whole entry, looked up): as the sequence (Q13490 whole entry) above

[3] = test system: HT-1080; assay: Protac activity at MDM2/GPX4 in human HT-1080 cells assessed as degradation of GPX4 at 10 uM by Western blot analysis relative to control; assay type: cell-based
[4] = test system: HT-1080; assay: Synergistic antiproliferative activity against human HT-1080 cells assessed as induction of cell death at 3.75 uM incubated for 48 hrs in presence of FeCl2 by CCK-8 assay; assay type: functional, cell-based
[5] = test system: Mitochondrial membrane; assay: Induction of mitochondrial membrane potential loss in human HT-1080 cells at 10 uM incubated for 48 hrs in presence of DFOM by JC-1 staining based flow cytometry analysis; assay type: cell membranes
[6] = test system: HT-1080; assay: Antiproliferative activity against human HT-1080 cells assessed as reduction in cell viability at 7.5 uM incubated for 48 hrs in presence of NAC by CCK-8 assay; assay type: functional, cell-based
[7] = test system: HT-1080; assay: Induction of ferroptosis in human HT-1080 cells assessed as lipid peroxide accumulation at 10 uM in presence of NAC by BODIPY 581/591C11 staining based analysis; assay type: functional, cell-based
[8] = target: T1, Baculoviral IAP repeat-containing protein 2/Phospholipid hydroperoxide glutathione peroxidase GPX4; assay: Protac activity at cIAP/GPX4 in human HT-1080 cells assessed as degradation of GPX4 at 5 uM by Western blot analysis; assay type: cell-based; conditions: time 12-72 hrs
Target sequence in this assay (P36969 whole entry, looked up): as the sequence (P36969 whole entry) above
Target sequence in this assay (Q13490 whole entry, looked up): as the sequence (Q13490 whole entry) above

[9] = target: T1, Baculoviral IAP repeat-containing protein 2/Phospholipid hydroperoxide glutathione peroxidase GPX4; assay: Protac activity at cIAP/GPX4 in human HT-1080 cells assessed as degradation of GPX4 at 5 uM preincubated with RSL3 for 4 hrs followed by compound addition and measured after 48 hrs by Western blot analysis; assay type: cell-based
Target sequence in this assay (P36969 whole entry, looked up): as the sequence (P36969 whole entry) above
Target sequence in this assay (Q13490 whole entry, looked up): as the sequence (Q13490 whole entry) above

[10] = test system: HT-1080; assay: Antiproliferative activity against human HT-1080 cells assessed as reduction in cell viability at 7.5 uM incubated for 48 hrs in presence of Fer-1 by CCK-8 assay; assay type: functional, cell-based
[11] = test system: Mitochondrial membrane; assay: Induction of mitochondrial membrane potential loss in human HT-1080 cells incubated for 48 hrs by JC-1 staining based flow cytometry analysis; assay type: cell membranes; conditions: dose 0.6-10 µM
[12] = test system: HEK-293T; assay: Cytotoxicity against HEK293T cells assessed as reduction in cell viability at 40 uM incubated for 48 hrs by CCK-8 assay; assay type: toxicity, cell-based; conditions: human
[13] = target: T1, Baculoviral IAP repeat-containing protein 2/Phospholipid hydroperoxide glutathione peroxidase GPX4; assay: Protac activity at cIAP/GPX4 in human HT-1080 cells assessed as degradation of GPX4 at 5 uM preincubated with cIAP ligand B4 for 4 hrs followed by compound addition and measured after 48 hrs by Western blot analysis; assay type: cell-based
Target sequence in this assay (P36969 whole entry, looked up): as the sequence (P36969 whole entry) above
Target sequence in this assay (Q13490 whole entry, looked up): as the sequence (Q13490 whole entry) above

[14] = target: T1, Baculoviral IAP repeat-containing protein 2/Phospholipid hydroperoxide glutathione peroxidase GPX4; assay: Protac activity at cIAP/GPX4 in human HT-1080 cells assessed as degradation of GPX4 at 5 uM measured upto 12 hrs after compound washout by Western blot analysis; assay type: cell-based
Target sequence in this assay (P36969 whole entry, looked up): as the sequence (P36969 whole entry) above
Target sequence in this assay (Q13490 whole entry, looked up): as the sequence (Q13490 whole entry) above

[15] = test system: HT-1080; assay: Antiproliferative activity against human HT-1080 cells assessed as reduction in cell viability incubated for 48 hrs by CCK-8 assay; assay type: functional, cell-based; conditions: HT-1080, 48 h
[16] = test system: HT-1080; assay: Antiproliferative activity against human HT-1080 cells assessed as induction of cell death incubated for 48 hrs in presence of Z-VAD-FMK by CCK-8 assay; assay type: functional, cell-based
[17] = test system: HT-1080; assay: Induction of ferroptosis in human HT-1080 cells assessed as lipid peroxide accumulation at 10 uM in presence of DFOM by BODIPY 581/591C11 staining based analysis; assay type: functional, cell-based
[18] = test system: HT-1080; assay: Antiproliferative activity against human HT-1080 cells assessed as reduction in cell viability at 7.5 uM incubated for 48 hrs in presence of DFOM by CCK-8 assay; assay type: functional, cell-based
[19] = target: T1, Baculoviral IAP repeat-containing protein 2/Phospholipid hydroperoxide glutathione peroxidase GPX4; assay: Protac activity at cIAP/GPX4 in human HT-1080 cells assessed as degradation of GPX4 at 5 uM preincubated with MG132 for 4 hrs followed by compound addition and measured after 48 hrs by Western blot analysis; assay type: cell-based
Target sequence in this assay (P36969 whole entry, looked up): as the sequence (P36969 whole entry) above
Target sequence in this assay (Q13490 whole entry, looked up): as the sequence (Q13490 whole entry) above

[20] = test system: HT-1080; assay: Induction of ferroptosis in human HT-1080 cells assessed as lipid peroxide accumulation at 10 uM in presence of Fer-1 by BODIPY 581/591C11 staining based analysis; assay type: functional, cell-based
[21] = target: T1, Baculoviral IAP repeat-containing protein 2/Phospholipid hydroperoxide glutathione peroxidase GPX4; assay: Protac activity at cIAP/GPX4 in human HT-1080 cells assessed as degradation of GPX4 at 5 uM preincubated with chloroquine for 4 hrs followed by compound addition and measured after 48 hrs by Western blot analysis; assay type: cell-based
[22] = test system: HT-1080; assay: Induction of ferroptosis in human HT-1080 cells assessed as lipid peroxide accumulation at 10 uM in presence of FeCl2 by BODIPY 581/591C11 staining based analysis; assay type: functional, cell-based
[23] = test system: HT-1080; assay: Induction of ferroptosis in human HT-1080 cells assessed as lipid peroxide accumulation by BODIPY 581/591C11 staining based analysis; assay type: functional, cell-based; conditions: dose 0.6-10 µM
[24] = test system: Mitochondrial membrane; assay: Induction of mitochondrial membrane potential loss in human HT-1080 cells at 10 uM incubated for 48 hrs in presence of NAC by JC-1 staining based flow cytometry analysis; assay type: cell membranes
[25] = target: T1, Baculoviral IAP repeat-containing protein 2/Phospholipid hydroperoxide glutathione peroxidase GPX4; assay: Protac activity at cIAP/GPX4 in human HT-1080 cells assessed as degradation of GPX4 at 5 uM preincubated with MLN4924 for 4 hrs followed by compound addition and measured after 48 hrs by Western blot analysis; assay type: cell-based
[26] = target: T1, Baculoviral IAP repeat-containing protein 2/Phospholipid hydroperoxide glutathione peroxidase GPX4; assay: Protac activity at cIAP/GPX4 in human HT-1080 cells assessed as degradation of GPX4 at 3 uM incubated for 4 hrs by Western blot analysis; assay type: cell-based
[27] = Cytotoxicity against HEK293T cells assessed as reduction in cell viability incubated for 48 hrs by CCK-8 assay; assay type: toxicity, cell-based, HEK-293T; conditions: human

For `COC(=O)c1ccc([C@H]2c3[nH]c4ccccc4c3C[C@H](C(=O)NCc3cn(CCCCCC(=O)N[C@H](Cc4ccccc4)[C@H](O)C(=O)N[C@@H](CC(C)C)C(=O)OC)nn3)N2C(=O)CCl)cc1`, the DC50 [1] was 4220 nM and the Emax [2] was 75%.

Work on `COC(=O)[C@H]1Cc2c([nH]c3ccccc23)[C@H](c2ccc(C(=O)NCc3cn(CCOCCNC(=O)CN4CCN(C(=O)N5C(c6ccc(OC)cc6OC(C)C)=N[C@H](c6ccc(Cl)cc6)[C@@H]5c5ccc(Cl)cc5)CC4=O)nn3)cc2)N1C(=O)CCl` yielded an Activity [3] of 60%.

For `COC(=O)[C@H](CC(C)C)NC(=O)[C@@H](O)[C@@H](Cc1ccccc1)NC(=O)CCCCCCCn1cc(CNC(=O)c2ccc([C@H]3c4[nH]c5ccccc5c4C[C@H](C(=O)OC)N3C(=O)CCl)cc2)nn1`, the Activity [4] was “Active”, the Activity [5] was “inactive” and the DC50 [1] was 1680 nM. For the same compound, the Activity [6] was “inactive”, the Emax [2] was 85% and the Activity [7] was “inactive”. The Activity [8] was “Time-dependent-effect”, the Activity [9] was “inactive” and the Activity [10] was “inactive”. For the same compound, the Activity [11] was “Dose-dependent-effect”, the Activity [12] was “Toxic” and the Activity [13] was “inactive”. The Activity [14] was “Active”, the IC50 [15] was 2370 nM and the Activity [16] was “Active”. For the same compound, the Activity [17] was “inactive”, the Activity [18] was “inactive” and the Activity [19] was “inactive”. The Activity [20] was “inactive”, the Activity [21] was “inactive” and the Activity [22] was “inactive”. The Activity [23] was “Dose-dependent-effect”, the Activity [24] was “inactive” and the Activity [25] was “inactive”.

In the case of `COC(=O)c1ccc([C@H]2c3[nH]c4ccccc4c3C[C@H](C(=O)OC)N2C(=O)CCl)cc1`, the Activity [26] is reported as “inactive”, the IC50 at 48 h [27] is reported as 10800 nM and the IC50 [15] is reported as 1550 nM.
